Test results from PubChem BioAssay (NCI).
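Briefly, cells in 96-well plates were exposed to five compound concentrations for 48 h, and endpoints were estimated by linear interpolation. TGI is the concentration that stops growth completely.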

What was measured:
Test in all cases: NCI tumour cell line growth inhibition, 48 h
SK-MEL-2 melanoma = tested on: SK-MEL-2 melanoma
SK-OV-3 ovarian = tested on: SK-OV-3 ovarian
LOX IMVI melanoma = tested on: LOX IMVI melanoma
NCI-H460 lung = tested on: NCI-H460 lung
U251 CNS = tested on: U251 CNS
SK-MEL-28 melanoma = tested on: SK-MEL-28 melanoma
SN12C renal = tested on: SN12C renal
HT29 colon = tested on: HT29 colon
MALME-3M melanoma = tested on: MALME-3M melanoma
CAKI-1 renal = tested on: CAKI-1 renal
P388/ADR leukemia = tested on: P388/ADR leukemia
XF 498 CNS = tested on: XF 498 CNS
KM12 colon = tested on: KM12 colon
UACC-62 melanoma = tested on: UACC-62 melanoma
A498 renal = tested on: A498 renal
NCI/ADR-RES ovarian = tested on: NCI/ADR-RES ovarian
UO-31 renal = tested on: UO-31 renal
DMS 273 small cell lung = tested on: DMS 273 small cell lung
SNB-75 CNS = tested on: SNB-75 CNS
SW-620 colon = tested on: SW-620 colon
K-562 leukemia = tested on: K-562 leukemia
HCT-116 colon = tested on: HCT-116 colon
OVCAR-4 ovarian = tested on: OVCAR-4 ovarian
OVCAR-5 ovarian = tested on: OVCAR-5 ovarian
SNB-19 CNS = tested on: SNB-19 CNS
HCT-15 colon = tested on: HCT-15 colon
IGROV1 ovarian = tested on: IGROV1 ovarian
HOP-92 NSCLC = tested on: HOP-92 NSCLC
SF-295 CNS = tested on: SF-295 CNS
M19-MEL melanoma = tested on: M19-MEL melanoma
OVCAR-8 ovarian = tested on: OVCAR-8 ovarian
COLO 205 colon = tested on: COLO 205 colon
RXF 393 renal = tested on: RXF 393 renal
DMS 114 small cell lung = tested on: DMS 114 small cell lung
HOP-62 NSCLC = tested on: HOP-62 NSCLC
A549 NSCLC = tested on: A549 NSCLC
DLD-1 colon = tested on: DLD-1 colon
UACC-257 melanoma = tested on: UACC-257 melanoma
NCI-H226 lung = tested on: NCI-H226 lung
SF-268 CNS = tested on: SF-268 CNS
SK-MEL-5 melanoma = tested on: SK-MEL-5 melanoma
CCRF-CEM leukemia = tested on: CCRF-CEM leukemia
SF-539 CNS = tested on: SF-539 CNS
MOLT-4 leukemia = tested on: MOLT-4 leukemia
HL-60(TB) leukemia = tested on: HL-60(TB) leukemia
NCI-H23 lung = tested on: NCI-H23 lung
HCC-2998 colon = tested on: HCC-2998 colon
OVCAR-3 ovarian = tested on: OVCAR-3 ovarian
HOP-18 NSCLC = tested on: HOP-18 NSCLC
P388 leukemia = tested on: P388 leukemia
SNB-78 CNS = tested on: SNB-78 CNS
EKVX NSCLC = tested on: EKVX NSCLC
RPMI-8226 leukemia = tested on: RPMI-8226 leukemia
KM20L2 colon = tested on: KM20L2 colon
NCI-H522 lung = tested on: NCI-H522 lung
SN12K1 renal = tested on: SN12K1 renal
MCF7 breast = tested on: MCF7 breast

Which results are given for NC(=O)c1ncn2c1NC(=O)CC2?
TGI (SK-MEL-2 melanoma): > 100 µM; TGI (SK-OV-3 ovarian): > 100 µM; TGI (LOX IMVI melanoma): > 100 µM; TGI (NCI-H460 lung): > 100 µM; TGI (U251 CNS): > 100 µM; TGI (SK-MEL-28 melanoma): > 100 µM; TGI (SN12C renal): > 100 µM; TGI (HT29 colon): > 100 µM; TGI (MALME-3M melanoma): > 100 µM; TGI (CAKI-1 renal): > 100 µM; TGI (P388/ADR leukemia): > 100 µM; TGI (XF 498 CNS): > 100 µM; TGI (KM12 colon): > 100 µM; TGI (UACC-62 melanoma): > 100 µM; TGI (A498 renal): > 100 µM; TGI (NCI/ADR-RES ovarian): > 100 µM; TGI (UO-31 renal): > 100 µM; TGI (DMS 273 small cell lung): > 100 µM; TGI (SNB-75 CNS): > 100 µM; TGI (SW-620 colon): > 100 µM; TGI (K-562 leukemia): > 100 µM; TGI (HCT-116 colon): > 100 µM; TGI (OVCAR-4 ovarian): > 100 µM; TGI (OVCAR-5 ovarian): > 100 µM; TGI (SNB-19 CNS): > 100 µM; TGI (HCT-15 colon): > 100 µM; TGI (IGROV1 ovarian): > 100 µM; TGI (HOP-92 NSCLC): > 100 µM; TGI (SF-295 CNS): > 100 µM; TGI (M19-MEL melanoma): > 100 µM; TGI (OVCAR-8 ovarian): > 100 µM; TGI (COLO 205 colon): > 100 µM; TGI (RXF 393 renal): > 100 µM; TGI (DMS 114 small cell lung): > 100 µM; TGI (HOP-62 NSCLC): > 100 µM; TGI (A549 NSCLC): > 100 µM; TGI (DLD-1 colon): > 100 µM; TGI (UACC-257 melanoma): > 100 µM; TGI (NCI-H226 lung): > 100 µM; TGI (SF-268 CNS): > 100 µM; TGI (SK-MEL-5 melanoma): > 100 µM; TGI (CCRF-CEM leukemia): > 100 µM; TGI (SF-539 CNS): > 100 µM; TGI (MOLT-4 leukemia): > 100 µM; TGI (HL-60(TB) leukemia): > 100 µM; TGI (NCI-H23 lung): > 100 µM; TGI (HCC-2998 colon): > 100 µM; TGI (OVCAR-3 ovarian): > 100 µM; TGI (HOP-18 NSCLC): > 100 µM; TGI (P388 leukemia): > 31.6 µM; TGI (SNB-78 CNS): > 86.8 µM; TGI (EKVX NSCLC): > 100 µM; TGI (RPMI-8226 leukemia): > 100 µM; TGI (KM20L2 colon): > 100 µM; TGI (NCI-H522 lung): > 100 µM; TGI (SN12K1 renal): > 100 µM; TGI (MCF7 breast): > 100 µM
